These results are taken from article PMC7744269 (Bioorganic & medicinal chemistry, 2010).

The target of assay [1] is T1, Ureaplasma parvum thymidine kinase (UpTK) (Ureaplasma parvum serovar 3, UniProt Q9PPP5).
T1 sequence (Q9PPP5 1-223): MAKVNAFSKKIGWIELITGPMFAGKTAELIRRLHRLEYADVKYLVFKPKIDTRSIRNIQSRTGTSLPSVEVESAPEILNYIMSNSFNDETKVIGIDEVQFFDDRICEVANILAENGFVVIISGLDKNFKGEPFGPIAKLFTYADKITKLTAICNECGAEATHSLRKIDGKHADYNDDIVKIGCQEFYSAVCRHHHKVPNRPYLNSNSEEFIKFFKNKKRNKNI
Description: Phosphate transfer assay with [γ-32P]-ATP. It is filed as biochemical. Particulars: for Vmax values of UpTK, times lower than with AZT: compared with AZT.

Assay [2] deals with viruses (HIV, Vaccinia virus, Cowpox virus, etc.). The note with it: previously reported; cited from earlier work.
In assay [3] the target is T2, human thymidine kinase 1 (hTK1) (Homo sapiens, UniProt P04183).
T2 sequence (P04183 1-234): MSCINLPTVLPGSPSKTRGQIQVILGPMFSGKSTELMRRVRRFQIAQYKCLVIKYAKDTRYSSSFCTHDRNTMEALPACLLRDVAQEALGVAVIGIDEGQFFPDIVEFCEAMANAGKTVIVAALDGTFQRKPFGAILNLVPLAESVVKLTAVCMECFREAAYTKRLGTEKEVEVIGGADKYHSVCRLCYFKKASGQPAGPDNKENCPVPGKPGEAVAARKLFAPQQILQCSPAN
Description: IC50 determination, DE-81 filter paper [3H]-dThd assay, hTK1. Type of assay: biochemical.

On to `CCCc1cn([C@H]2C[C@H](n3cc(C)c(=O)[nH]c3=O)O[C@@H]2CO)nn1` [Compound 6, 3′-(4-Propyl-1,2,3-triazol-1-yl)-3′-deoxythymidine], for which the “Relative efficiency with UpTK” value in assay [1] (compared to dThd (set to 100%)) amounted to 1.6%.

For the compound `Cc1cn([C@H]2C[C@H](n3cc(-c4ccccc4)nn3)[C@@H](CO)O2)c(=O)[nH]c1=O` [Compound 9, 3′-(4-Phenyl-1,2,3-triazol-1-yl)-3′-deoxythymidine], the Antiviral activity entry in assay [2] is “devoid of significant antiviral activity”. In addition, the “Vmax values of UpTK, times lower than with AZT” value in assay [1] is given as 3–4.

In general, IC50 refers to the concentration at which inhibition is half-maximal. A high value points to weaker potency. In the case of `Cc1cn([C@H]2C[C@H](n3cc(-c4ccccn4)nn3)[C@@H](CO)O2)c(=O)[nH]c1=O` [Compound 12, 3′-(4-(2-Pyridine)-1,2,3-triazole-1-yl)-2′-deoxythymidine], in assay [2], the Antiviral activity result was “devoid of significant antiviral activity”. The compound also yielded an IC50 in assay [3] of 40 to 50 µM. The “Vmax values of UpTK, times lower than with AZT” value in assay [1] is 3–4.

On to `Cc1cn([C@H]2C[C@H](n3cc(-c4ccc(F)cc4)nn3)[C@@H](CO)O2)c(=O)[nH]c1=O` [Compound 13, 3′-(4-(4-Fluorophenyl)-1,2,3-triazole-1-yl)-2′-deoxythymidine], for which the Antiviral activity result in assay [2] was “devoid of significant antiviral activity”. For the same compound, in assay [1] (UpTK vs hTK1), the “Phosphorylation with UpTK compared to hTK1 (relative activity)” value was “five times more potent with UpTK than hTK1”. Moreover, the “Vmax values of UpTK, times lower than with AZT” value in assay [1] is recorded as 3–4.

As to `Cc1cn([C@H]2C[C@H](n3cc(CO)nn3)[C@@H](CO)O2)c(=O)[nH]c1=O` [Compound 1, 3′-(4-Hydroxymethyl-1,2,3-triazol-1-yl)-3′-deoxythymidine], the Antiviral activity result in assay [2] is “devoid of significant antiviral activity”.
